Experimental data from patent publication US20090215813A1, “HISTONE DEACETYLASE INHIBITORS AS IMMUNOSUPPRESSANTS” (priority 2003, published 2009).

What was measured:
[1] = system: heart graft, strain combination Lewis and BN; assay: Rat heart transplantation, graft survival and histology; format: in vivo; settings: for effect of co-administration: test not named
Excerpt: Rat Heart Transplantation
The strain combination used is Male Lewis (RT1 haplotype) and BN (RT1 haplotype). The animals are anaesthetized using inhalation isofluorane. […] The aorta is ligated and divided distal to the first branch and the brachiocephalic trunk is divided at the first bifurcation. The left pulmonary artery is ligated and divided and the right side divided but left open. All other vessels are dissected free, ligated and divided and the donor heart is removed into iced saline.
The recipient is prepared by dissection and cross-clamping of the infra-renal abdominal aorta and vena cava. The graft is implanted with end-to-side anastomoses, using 10/0 monofilament suture, between the donor brachiocephalic trunk and the recipient aorta and the donor right pulmonary artery to the recipient vena cava. The clamps are removed, the graft tethered retroabdominally, the abdominal contents washed with warm saline and the animal is closed and allowed to recover under a heating lamp. Animals are treated with saline (control); an HDAI compound e.g. a compound of formula (I), e.g. N-hydroxy-3-[4-[[[2-(2-methyl-1H-indol-3-yl)-ethyl]-amino]methyl]phenyl]-2E-2-propenamide (“compound P1”); 40-O-(2-hydroxyethyl)-rapamycin (“compound P2”) prepared according to the methods described in WO 94/09010; FTY720 (“compound P3”) prepared according to Example 28 of WO 94/08943, or combinations of the each as indicated. Graft survival is monitored by daily palpation of the beating donor heart through the abdominal wall. Rejection is considered to be complete when heart beat stops. At that point the animal is euthanized and the transplanted heart is fixed for histology. […] The scale for grading for acute rejection is 1=slight; 2=moderate; 3=marked; 4=severe.

[2] = system: spleen cells from CBA and BALB/c mice; assay: Allogeneic two-way mixed lymphocyte reaction (MLR); format: cell-based; settings: two-way mouse MLR, 3H-thymidine incorporation after four days, read-out: IC50 value (concentration required for 50% inhibition of proliferation)
Protocol: Cellular Assay: Allogeneic Mixed Lymphocyte Reaction (MLR)
The two-way MLR is performed according to standard procedures (J. Immunol. Methods, 1973, 2, 279 and Meo T. et al., Immunological Methods, New York, Academic Press, 1979, 227-39). Briefly, spleen cells from CBA and BALB/c mice (1.6×10^5 cells from each strain per well in flat bottom tissue culture microtiter plates, 3.2×10^5 in total) are incubated in RPMI medium containing 10% FCS, 100 U/ml penicillin, 100 μg/ml streptomycin (Gibco BRL, Basel, Switzerland), 50 μM 2-mercaptoethanol (Fluka, Buchs, Switzerland) and serially diluted compounds. Seven three-fold dilution steps in duplicates per test compound are performed. After four days of incubation 1 μCi ^3H-thymidine is added. Cells are harvested after an additional five-hour incubation period, and incorporated ^3H-thymidine is determined according to standard procedures. Background values (low control) of the MLR are the proliferation of BALB/c cells alone. Low controls are subtracted from all values. High controls without any sample are taken as 100% proliferation. Percent inhibition by the samples is calculated, and the concentrations required for 50% inhibition (IC50 values) are determined. In this assay, the agents of the invention have IC50 values in the range of 1 nM to 10 μM, preferably from 1 nM to 500 nM.

[3] = system: Balb/c (H-2d) heart graft in C57BL/6J (H-2b) recipients; assay: Acute rejection, heterotopic heart transplantation, graft survival; format: in vivo, mice; settings: versus saline, across dosing schedules
Protocol: Balb/c (H-2^d) mice are used as donor animals, and e.g. C57BL/6J (H-2^b) mice as recipients. The heart is removed from the donors according to known procedures and stored in cold saline (4° C.). The recipient animals are anaesthetised with isofluorane. […] Blood vessels are dissected free from the fascia for a length of 3-5 mm, ligating and dividing any small branches. Vessels are occluded, first proximally and then distally. An arteriotomy and venotomy is performed, and lumens are flushed with heparinised physiological saline. […] The distal ligature is removed, then the proximal ligature. The suture lines are checked for leakage. Then the graft is tethered retroabdobminally. The abdomen is flooded with warm saline (37° C.) and the wound is closed. Graft function is monitored daily by palpation of the abdomen. Rejection is concluded when the graft stops beating. Animals are treated with a 100 μL subcutaneous injection of saline or a solution of a HDAI, e.g. the compound of formula (I), e.g. N-hydroxy-3-[4-[[[2-(2-methyl-1H-indol-3-yl)-ethyl]-amino]methyl]phenyl]-2E-2-propenamide in lactate buffer pH 5.5 according to the dosing schedule shown in Table 1 below: […]

Cc1[nH]c2ccccc2c1CCNCc1ccc(/C=C/C(=O)NO)cc1 [Compound P1, N-hydroxy-3-[4-[[[2-(2-methyl-1H-indol-3-yl)-ethyl]-amino]methyl]phenyl]-2E-2-propenamide]
Median survival time (MST) ([1]; 0.3 mg/kg/d s.c., rat): 6
Median survival time (MST) ([1]; 1.0 mg/kg/d s.c., rat): >28
Survival (days) for each individual graft ([1]; 1.0 mg/kg/d s.c., rat): >28, >28, >28 days
effect of co-administration ([1]; co-administered with a mTOR inhibitor, e.g. 40-O-(2-hydroxyethyl)-rapamycin): synergistic effect
effect of co-administration ([1]; co-administered with a sphingosine 1-phosphate receptor agonist): synergistic effect
IC50 [2]: 9 nM
increases graft survival [3]: 2-5 times the number of days

CO[C@H]1C[C@@H]2CC[C@@H](C)[C@@](O)(O2)C(=O)C(=O)N2CCCC[C@H]2C(=O)O[C@H]([C@H](C)C[C@@H]2CC[C@@H](OCCO)[C@H](OC)C2)CC(=O)[C@H](C)/C=C(\C)[C@@H](O)[C@@H](OC)C(=O)[C@H](C)C[C@H](C)/C=C/C=C/C=C/1C [Compound P2, 40-O-(2-hydroxyethyl)-rapamycin, reference compound]
Median survival time (MST) ([1]; 0.3 mg/kg/d p.o., rat): 7

CCCCCCCCc1ccc(CCC(N)(CO)CO)cc1 [Compound P3, FTY720, reference compound]
Median survival time (MST) ([1]; 0.1 mg/kg/d p.o., rat): 7.5
